Experimental data as given in publication PMC8655237 (Journal of Advanced Research, 2021).

Key:
PC-3 [1] = experiment: NRU antiproliferative assay; assay type: cell-based; settings: Homo sapiens, PC-3, 24 h, read-out: IC50 (NRU)
[2] = tested on: Ornithine decarboxylase (ODC); experiment: ODC assay, cell-free; assay type: biochemical; settings: read-out: IC50 ODC; cell free (In vitro)
[3] = tested on: panel of organ-specific human cancer and normal cell lines; experiment: Antiproliferative activity over the cell line panel; assay type: cell-based; settings: read-out: IC50 range in all the tested assay systems
A431 [4] = experiment: MTT antiproliferative assay; assay type: cell-based; settings: Homo sapiens, A-431, 24 h, read-out: IC50 (MTT)
A431 [5] = experiment: NRU antiproliferative assay; assay type: cell-based; settings: Homo sapiens, A-431, 24 h, read-out: IC50 (NRU)
A431 cells = experiment: DCFH-DA ROS assay; assay type: cell-based, human; settings: A431, highest concentration, 24 h, spectrofluorometer
PC-3 [6] = experiment: MTT antiproliferative assay; assay type: cell-based; settings: Homo sapiens, PC-3, 24 h, read-out: IC50 (MTT)
AKT = AKT quantification by ELISA in A431 cells; assay type: cell-based, human; settings: A431, 100 µM, 24 h
[7] = tested on: Ehrlich Ascites Carcinoma (EAC); experiment: Ehrlich ascites carcinoma; assay type: in vivo, Swiss albino mice; settings: for reduction of EAC tumor cells (tumor growth inhibition): day 1-9
FaDu = experiment: MTT antiproliferative assay; assay type: cell-based; settings: Homo sapiens, 24 h, read-out: IC50 (MTT)
A549 [8] = experiment: NRU antiproliferative assay; assay type: cell-based; settings: Homo sapiens, A549, 24 h, read-out: IC50 (NRU)
LOX-5 mRNA = experiment: Real-time qPCR expression analysis; assay type: cell-based, human; settings: GAPDH internal control
COX-2 mRNA = experiment: Real-time qPCR expression analysis; assay type: cell-based, human; settings: GAPDH internal control
K562 = experiment: Cell cycle analysis by flow cytometry; assay type: cell-based, human; settings: K562, 24 h
LOX-5 = LOX-5 (Homo sapiens, UniProt P09917); experiment: LOX-5 assay, cell-based; settings: IC50 LOX-5, cell based, K562
Chain of LOX-5 (P09917 whole entry): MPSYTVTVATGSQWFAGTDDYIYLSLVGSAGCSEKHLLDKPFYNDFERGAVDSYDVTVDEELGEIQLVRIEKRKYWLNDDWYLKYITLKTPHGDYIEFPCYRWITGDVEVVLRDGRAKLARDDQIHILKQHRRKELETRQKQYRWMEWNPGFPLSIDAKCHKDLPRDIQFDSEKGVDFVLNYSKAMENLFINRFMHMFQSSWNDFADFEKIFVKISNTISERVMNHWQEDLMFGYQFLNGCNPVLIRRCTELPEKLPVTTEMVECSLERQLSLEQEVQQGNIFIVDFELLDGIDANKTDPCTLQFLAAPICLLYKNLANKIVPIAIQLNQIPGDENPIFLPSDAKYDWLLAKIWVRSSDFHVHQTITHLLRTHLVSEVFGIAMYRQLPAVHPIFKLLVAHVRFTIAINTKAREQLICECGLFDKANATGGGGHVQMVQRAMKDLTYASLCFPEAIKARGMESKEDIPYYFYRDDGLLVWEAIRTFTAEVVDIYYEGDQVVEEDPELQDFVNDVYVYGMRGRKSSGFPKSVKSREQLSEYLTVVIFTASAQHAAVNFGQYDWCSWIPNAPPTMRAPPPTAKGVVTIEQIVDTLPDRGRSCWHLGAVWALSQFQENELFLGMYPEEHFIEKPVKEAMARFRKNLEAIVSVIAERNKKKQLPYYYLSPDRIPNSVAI

MDA-MB-231 = experiment: NRU antiproliferative assay; assay type: cell-based; settings: Homo sapiens, MDA-MB-231, 24 h, read-out: IC50 (NRU)
mTOR = mTOR quantification by ELISA in A431 cells; assay type: cell-based, human; settings: A431, 100 µM, 24 h
PC-3 [9] = experiment: Cell cycle analysis by flow cytometry; assay type: cell-based, human; settings: PC-3, 24 h
COX-2 = target: T1, COX-2 (Homo sapiens, UniProt P35354); experiment: COX-2 assay, cell-free; assay type: biochemical
T1 sequence (P35354 18-604): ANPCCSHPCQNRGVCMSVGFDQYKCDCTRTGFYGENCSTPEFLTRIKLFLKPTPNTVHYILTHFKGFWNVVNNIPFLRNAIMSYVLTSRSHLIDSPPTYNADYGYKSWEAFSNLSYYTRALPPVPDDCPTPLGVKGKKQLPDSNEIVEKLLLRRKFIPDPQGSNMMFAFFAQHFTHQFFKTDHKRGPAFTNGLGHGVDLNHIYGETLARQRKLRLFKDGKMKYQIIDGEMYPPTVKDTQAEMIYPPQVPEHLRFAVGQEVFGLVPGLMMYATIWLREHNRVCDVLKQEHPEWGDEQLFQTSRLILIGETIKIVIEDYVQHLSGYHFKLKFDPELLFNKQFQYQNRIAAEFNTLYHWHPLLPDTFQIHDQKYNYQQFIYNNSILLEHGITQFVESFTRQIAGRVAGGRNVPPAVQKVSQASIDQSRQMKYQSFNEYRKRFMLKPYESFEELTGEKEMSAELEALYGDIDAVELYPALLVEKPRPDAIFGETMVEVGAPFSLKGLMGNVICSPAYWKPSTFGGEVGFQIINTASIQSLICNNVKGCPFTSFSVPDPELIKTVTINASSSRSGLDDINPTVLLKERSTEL

DHFR mRNA = experiment: Real-time qPCR expression analysis; assay type: cell-based, human; settings: A549, with respect to control, GAPDH internal control
Cathepsin D (CATD) [10] = target: T2, Cathepsin D (CATD) (Homo sapiens, UniProt P07339); experiment: Cathepsin D assay, cell-based; settings: IC50 CAT D
T2 sequence (P07339 65-412): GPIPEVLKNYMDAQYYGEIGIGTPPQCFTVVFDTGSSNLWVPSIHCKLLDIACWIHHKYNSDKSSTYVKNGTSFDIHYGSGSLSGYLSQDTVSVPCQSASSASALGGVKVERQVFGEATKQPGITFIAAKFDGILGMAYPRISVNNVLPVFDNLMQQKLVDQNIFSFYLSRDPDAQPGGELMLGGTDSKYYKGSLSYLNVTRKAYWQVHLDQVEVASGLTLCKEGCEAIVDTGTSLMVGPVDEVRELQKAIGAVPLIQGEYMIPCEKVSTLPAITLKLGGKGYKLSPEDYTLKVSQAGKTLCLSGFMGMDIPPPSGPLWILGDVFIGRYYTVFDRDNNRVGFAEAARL

HDAC-6 = HDAC-6 quantification by ELISA in A431 cells; assay type: cell-based, human; settings: A431, 100 µM, 24 h
A549 [11] = experiment: Cell cycle analysis by flow cytometry; assay type: cell-based, human; settings: A549, 24 h
HEK-293 = experiment: Cytotoxicity to normal cell line; assay type: cell-based, human; settings: higher tested concentration (100 µM)
hyaluronidase = experiment: Hyaluronidase activity in EAC cells of treated mice; assay type: in vivo; settings: 75 mg/kg bw, i.p.
Acute oral toxicity = assay type: in vivo, Swiss albino mice; settings: up to 1000 mg/kg body weight
A431 [12] = experiment: SRB antiproliferative assay; assay type: cell-based; settings: Homo sapiens, A-431, 24 h, read-out: IC50 (SRB)
[13] = ref https://chem.nlm.nih.gov/chemidplus/rn/3623–51-6; cited from earlier work
human erythrocytes = experiment: Ex vivo osmotic fragility test; settings: 100 μM
hyaluronidase (HYAL) = experiment: Hyaluronidase assay, cell-free; assay type: biochemical; settings: cell-free system
Cathepsin D (CATD) [14] = target: T2, Cathepsin D (CATD); experiment: Cathepsin D assay, cell-free
A431 [15] = experiment: Cell cycle analysis by flow cytometry; assay type: cell-based, human; settings: A431, 24 h

CC(C)[C@@H]1CC[C@@H](C)C[C@@H]1O [neomenthol, (+)-Neomenthol]
IC50 (PC-3 [1]): 84.6 ± 1.81 µM
IC50 [2]: 20.2 ± 1.09 µM
IC50 [3]: 16.4 to 99.3 µM
IC50 (A431 [4]): 17.3 ± 6.49 µM
IC50 (A431 [5]): 18.5 ± 3.66 µM
percent increase in the ROS level (A431 cells): 20.45 ± 0.35%
IC50 (PC-3 [6]): 20.1 ± 0.82 µM
AKT level (ng/mg of protein) (AKT): 0.125 ± 0.004 ng/mg
reduction of EAC tumor cells (tumor growth inhibition) ([7]; 50 mg/kg bw i.p.): 23.98%
survival rate higher compared to EAC harbored mice ([7]; 75 mg/kg body weight): 17%
survival of EAC harbored mice (survived till) ([7]; 75 mg/kg body weight, untreated EAC mice died within 24 days): 27 days
reduction of EAC tumor cells (tumor growth inhibition) ([7]; 75 mg/kg bw i.p.): 58.84%
IC50 (FaDu): 99.31 ± 0.59 µM
IC50 (A549 [8]): 48.1 ± 4.97 µM
LOX-5 mRNA expression level (LOX-5 mRNA; A431, with respect to control): 1.25 fold change
LOX-5 mRNA expression level (LOX-5 mRNA; FaDu, with respect to control): 1.26 fold change
LOX-5 mRNA expression level (LOX-5 mRNA; K562, with respect to control): 1.10 fold change
COX-2 mRNA expression level (COX-2 mRNA; A431, with respect to control): 1.34 fold change
COX-2 mRNA expression level (COX-2 mRNA; A549, with respect to control): 1.09 fold change
COX-2 mRNA expression level (COX-2 mRNA; FaDu, with respect to control): 1.38 fold change
COX-2 mRNA expression level (COX-2 mRNA; MDA-MB-231, with respect to control): 1.16 fold change
COX-2 mRNA expression level (COX-2 mRNA; PC-3, with respect to control): 1.19 fold change
cell cycle phase arrested (K562): arrest of the G0/G1 phase
IC50 (LOX-5): 72.2 ± 2.19 µM
IC50 (MDA-MB-231): 34.7 ± 9.96 µM
mTOR level (ng/mg of protein) (mTOR): 0.336 ± 0.108 ng/mg
cell cycle phase arrested (PC-3 [9]): arrest of the G0/G1 phase
IC50 (COX-2): 81.01 ± 0.59 µM
DHFR mRNA expression level (DHFR mRNA): 1.17 fold change
IC50 (Cathepsin D (CATD) [10]; A549): 62 ± 2.08 µM
IC50 (Cathepsin D (CATD) [10]; FaDu): 74.62 ± 0.21 µM
IC50 (Cathepsin D (CATD) [10]; K562): 57.5 ± 14 µM
HDAC-6 level (ng/mg of protein) (HDAC-6): 0.104 ± 0.001 ng/mg
cell cycle phase arrested (A549 [11]): G2/M phase
cytotoxicity to HEK-293 (HEK-293): non-cytotoxic
inhibition (modulation) of hyaluronidase activity in EAC cells of mice (hyaluronidase): up to 10%
acute oral toxicity outcome (Acute oral toxicity): safe and non-toxic
IC50 (A431 [12]): 82.1 ± 1.97 µM
LD50 [13]: 4000 mg/kg
toxicity to erythrocytes (osmotic fragility) (human erythrocytes): non-toxic to erythrocytes
inhibition of hyaluronidase enzyme activity (hyaluronidase (HYAL)): 24.9 ± 4.31%
IC50 (Cathepsin D (CATD) [14]): 30.4 ± 6.44 µM
cell cycle phase arrested (A431 [15]): G2/M phase
